From patent publication US10292394B2, “Herbicidal compounds” (Syngenta Participations AG, priority 2015, dated 2019)

Key:
Assay in all cases: Post-emergence efficacy, glasshouse pot test
Assay type in all cases: in vivo
Conditions in all cases: post-emergence application, evaluated after 13 days
Lolium perenne (LOLPE) = test system: Lolium perenne (LOLPE)
Experimental: (§1) B1 Post-Emergence Efficacy Seeds of a variety of test species are sown in standard soil in pots:—Solanum nigrum (SOLNI), Amaranthus retoflexus (AMARE), Setaria faberi (SETFA), Alopecurus myosuroides (ALOMY), Echinochloa crus-galli (ECHCG), Ipomoea hederacea (IPOHE), Lolium perenne (LOLPE). After 8 days cultivation (post-emergence) under controlled conditions in a glasshouse (at 24/16° C., day/night; 14 hours light; 65% humidity), the plants are sprayed with an aqueous spray solution derived from the formulation of the technical active ingredient in acetone/water (50:50) solution containing 0.5% Tween 20 (polyoxyethylene sorbitan monolaurate, CAS RN 9005-64-5). Compounds are applied at 1000 g/ha and 250 g/ha. The test plants are then grown in a glasshouse under controlled conditions in a glasshouse (at 24/16° C., day/night; 14 hours light; 65% humidity) and watered twice daily. After 13 days, the test is evaluated for the percentage damage caused to the plant. The biological activities are assessed on a five point scale (5=80-100%; 4=60-79%; 3=40-59%; 2=20-39%; 1=0-19%).

Setaria faberi (SETFA) = test system: Setaria faberi (SETFA)
Experimental: as §1

[1] = test system: Echinochloa crus-galli (ECHCG)
Experimental: as §1

Solanum nigrum (SOLNI) = test system: Solanum nigrum (SOLNI)
Experimental: as §1

[2] = test system: Amaranthus retoflexus (AMARE)
Experimental: as §1

[3] = test system: Ipomoea hederacea (IPOHE)
Experimental: as §1

For `C#CCn1c(=O)c(-c2c(Cl)ccc(Cl)c2OCc2cnc(Cl)s2)c(O)c2cccnc21` [Compound 1.19], the “percentage damage caused to the plant, five point scale, LOLPE” value (“percentage damage caused … LOLPE” for short) (Lolium perenne (LOLPE); 250 g/ha) was 5 (5=80-100%), the “percentage damage caused … LOLPE” value (Lolium perenne (LOLPE); 1000 g/ha) was 5 (5=80-100%) and the “percentage damage caused to the plant, five point scale, SETFA” value (from here on “percentage damage caused … SETFA”) (Setaria faberi (SETFA); 250 g/ha) was 4 (4=60-79%). The “percentage damage caused … SETFA” value (Setaria faberi (SETFA); 1000 g/ha) was 5 (5=80-100%), the “percentage damage caused to the plant, five point scale, ECHCG” value (from here on “percentage damage caused … ECHCG”) ([1]; 250 g/ha) was 3 (3=40-59%) and the “percentage damage caused … ECHCG” value ([1]; 1000 g/ha) was 5 (5=80-100%). The “percentage damage caused to the plant, five point scale, SOLNI” value (from here on “percentage damage caused … SOLNI”) (Solanum nigrum (SOLNI); 250 g/ha) was 5 (5=80-100%), the “percentage damage caused … SOLNI” value (Solanum nigrum (SOLNI); 1000 g/ha) was 5 (5=80-100%) and the “percentage damage caused to the plant, five point scale, AMARE” value (from here on “percentage damage caused … AMARE”) ([2]; 250 g/ha) was 4 (4=60-79%). For the same molecule, the “percentage damage caused … AMARE” value ([2]; 1000 g/ha) was 5 (5=80-100%), the “percentage damage caused to the plant, five point scale, IPOHE” value (from here on “percentage damage caused … IPOHE”) ([3]; 250 g/ha) was 5 (5=80-100%) and the “percentage damage caused … IPOHE” value ([3]; 1000 g/ha) was 5 (5=80-100%).

In the case of `O=c1c(-c2c(Cl)ccc(Cl)c2OCc2cnc(Cl)s2)c(O)c2cccnc2n1CC(F)F` [Compound 3.19], the “percentage damage caused … LOLPE” value (Lolium perenne (LOLPE); 250 g/ha) is reported as 4 (4=60-79%), the “percentage damage caused … LOLPE” value (Lolium perenne (LOLPE); 1000 g/ha) is reported as 5 (5=80-100%) and the “percentage damage caused … SETFA” value (Setaria faberi (SETFA); 250 g/ha) is reported as 4 (4=60-79%). For the same molecule, the “percentage damage caused … SETFA” value (Setaria faberi (SETFA); 1000 g/ha) was 5 (5=80-100%), the “percentage damage caused … ECHCG” value ([1]; 250 g/ha) was 3 (3=40-59%) and the “percentage damage caused … ECHCG” value ([1]; 1000 g/ha) was 4 (4=60-79%). The “percentage damage caused … SOLNI” value (Solanum nigrum (SOLNI); 250 g/ha) was 5 (5=80-100%), the “percentage damage caused … SOLNI” value (Solanum nigrum (SOLNI); 1000 g/ha) was 5 (5=80-100%) and the “percentage damage caused … AMARE” value ([2]; 250 g/ha) was 5 (5=80-100%). The “percentage damage caused … AMARE” value ([2]; 1000 g/ha) was 5 (5=80-100%), the “percentage damage caused … IPOHE” value ([3]; 250 g/ha) was 5 (5=80-100%) and the “percentage damage caused … IPOHE” value ([3]; 1000 g/ha) was 5 (5=80-100%).

With `C#CCn1c(=O)c(-c2c(Cl)ccc(Cl)c2OCc2cnc(Cl)s2)c(O)c2nccnc21` [Compound 9.19, 7-[3,6-dichloro-2-[(2-chlorothiazol-5-yl)methoxy]phenyl]-8-hydroxy-5-prop-2-ynyl-pyrido[2,3-b]pyrazin-6-one] the “percentage damage caused … LOLPE” value (Lolium perenne (LOLPE); 250 g/ha) was 5 (5=80-100%), the “percentage damage caused … LOLPE” value (Lolium perenne (LOLPE); 1000 g/ha) was 5 (5=80-100%) and the “percentage damage caused … SETFA” value (Setaria faberi (SETFA); 250 g/ha) was 5 (5=80-100%). The “percentage damage caused … SETFA” value (Setaria faberi (SETFA); 1000 g/ha) was 5 (5=80-100%), the “percentage damage caused … ECHCG” value ([1]; 250 g/ha) was 5 (5=80-100%) and the “percentage damage caused … ECHCG” value ([1]; 1000 g/ha) was 5 (5=80-100%). The “percentage damage caused … SOLNI” value (Solanum nigrum (SOLNI); 250 g/ha) was 5 (5=80-100%), the “percentage damage caused … SOLNI” value (Solanum nigrum (SOLNI); 1000 g/ha) was 5 (5=80-100%) and the “percentage damage caused … AMARE” value ([2]; 250 g/ha) was 5 (5=80-100%). For the same molecule, the “percentage damage caused … AMARE” value ([2]; 1000 g/ha) was 5 (5=80-100%), the “percentage damage caused … IPOHE” value ([3]; 250 g/ha) was 5 (5=80-100%) and the “percentage damage caused … IPOHE” value ([3]; 1000 g/ha) was 5 (5=80-100%).

In the case of `O=c1c(-c2c(Cl)ccc(Cl)c2OCc2cnc(Cl)s2)c(O)c2nccnc2n1CC(F)F` [Compound 11.19], the “percentage damage caused … LOLPE” value (Lolium perenne (LOLPE); 250 g/ha) is reported as 5 (5=80-100%), the “percentage damage caused … LOLPE” value (Lolium perenne (LOLPE); 1000 g/ha) is reported as 5 (5=80-100%) and the “percentage damage caused … SETFA” value (Setaria faberi (SETFA); 250 g/ha) is reported as 4 (4=60-79%). The “percentage damage caused … SETFA” value (Setaria faberi (SETFA); 1000 g/ha) was 5 (5=80-100%), the “percentage damage caused … ECHCG” value ([1]; 250 g/ha) was 5 (5=80-100%) and the “percentage damage caused … ECHCG” value ([1]; 1000 g/ha) was 4 (4=60-79%). For the same molecule, the “percentage damage caused … SOLNI” value (Solanum nigrum (SOLNI); 250 g/ha) was 5 (5=80-100%), the “percentage damage caused … SOLNI” value (Solanum nigrum (SOLNI); 1000 g/ha) was 5 (5=80-100%) and the “percentage damage caused … AMARE” value ([2]; 250 g/ha) was 5 (5=80-100%). For the same molecule, the “percentage damage caused … AMARE” value ([2]; 1000 g/ha) was 5 (5=80-100%), the “percentage damage caused … IPOHE” value ([3]; 250 g/ha) was 5 (5=80-100%) and the “percentage damage caused … IPOHE” value ([3]; 1000 g/ha) was 5 (5=80-100%).

In the case of `C#CCn1c(=O)c(-c2c(Cl)ccc(Cl)c2OCc2cnc(Cl)s2)c(O)c2c(OC)ccnc21` [Compound 17.19], the “percentage damage caused … LOLPE” value (Lolium perenne (LOLPE); 250 g/ha) is reported as 4 (4=60-79%), the “percentage damage caused … LOLPE” value (Lolium perenne (LOLPE); 1000 g/ha) is reported as 5 (5=80-100%) and the “percentage damage caused … SETFA” value (Setaria faberi (SETFA); 250 g/ha) is reported as 5 (5=80-100%). For the same molecule, the “percentage damage caused … SETFA” value (Setaria faberi (SETFA); 1000 g/ha) was 5 (5=80-100%), the “percentage damage caused … ECHCG” value ([1]; 250 g/ha) was 5 (5=80-100%) and the “percentage damage caused … ECHCG” value ([1]; 1000 g/ha) was 5 (5=80-100%). For the same molecule, the “percentage damage caused … SOLNI” value (Solanum nigrum (SOLNI); 250 g/ha) was 5 (5=80-100%), the “percentage damage caused … SOLNI” value (Solanum nigrum (SOLNI); 1000 g/ha) was 5 (5=80-100%) and the “percentage damage caused … AMARE” value ([2]; 250 g/ha) was 5 (5=80-100%). The “percentage damage caused … AMARE” value ([2]; 1000 g/ha) was 5 (5=80-100%), the “percentage damage caused … IPOHE” value ([3]; 250 g/ha) was 5 (5=80-100%) and the “percentage damage caused … IPOHE” value ([3]; 1000 g/ha) was 5 (5=80-100%).

With `COc1ccnc2c1c(O)c(-c1c(Cl)ccc(Cl)c1OCc1cnc(Cl)s1)c(=O)n2CC(F)F` [Compound 19.19] the “percentage damage caused … LOLPE” value (Lolium perenne (LOLPE); 250 g/ha) was 4 (4=60-79%), the “percentage damage caused … LOLPE” value (Lolium perenne (LOLPE); 1000 g/ha) was 5 (5=80-100%) and the “percentage damage caused … SETFA” value (Setaria faberi (SETFA); 250 g/ha) was 5 (5=80-100%). For the same molecule, the “percentage damage caused … SETFA” value (Setaria faberi (SETFA); 1000 g/ha) was 5 (5=80-100%), the “percentage damage caused … ECHCG” value ([1]; 250 g/ha) was 5 (5=80-100%) and the “percentage damage caused … ECHCG” value ([1]; 1000 g/ha) was 5 (5=80-100%). For the same molecule, the “percentage damage caused … SOLNI” value (Solanum nigrum (SOLNI); 250 g/ha) was 5 (5=80-100%), the “percentage damage caused … SOLNI” value (Solanum nigrum (SOLNI); 1000 g/ha) was 5 (5=80-100%) and the “percentage damage caused … AMARE” value ([2]; 250 g/ha) was 5 (5=80-100%). The “percentage damage caused … AMARE” value ([2]; 1000 g/ha) was 5 (5=80-100%), the “percentage damage caused … IPOHE” value ([3]; 250 g/ha) was 5 (5=80-100%) and the “percentage damage caused … IPOHE” value ([3]; 1000 g/ha) was 5 (5=80-100%).
